Results on three compounds are retold here after US9040061B2, “Topical formulation for administering a compound” (Rigel Pharmaceuticals, Inc., priority 2011, dated 2015).

SMILES strings stand for the structures. In brackets after ≈: the same amount, converted by molar mass. Where a name gives a salt, the structure may show the parent alone. Read-outs that look alike come from different tables or passages of the source. Marks after values point to notes of the source that are not given here. A value given as a limit tells only on which side of the number the result lay.

Series [1] is described as follows: Solubility studies of compound I. Format: physicochemical. How it is done:
The solubility of compound I free base in water is only 2 μg/mL. […] Accordingly, the free base was utilized for the formulation development of compound I.

The nature of series [2]: Solubility studies of compound I. In kind it is physicochemical. The source holds these as a separate data set.
Series [3] concerns other cytokine (IL-1β and TNFα) signaling. The experiment in a line: Other cytokine signaling. Format: cell-based.
Series [4] has as its system primary human T-cells. The experiment in a line: Primary human T-cell proliferation assay stimulated with IL-2. Format: cell-based. The conditions noted are these: IL-2, 72 hours, CellTiter-Glo. From the text: The JAK activity of compound I may further be characterized by assaying the effect of compound I on the proliferative response of primary human T-cells. In this assay, primary human T-cells derived from peripheral blood and pre-activated through stimulation of the T-cell receptor and CD28, proliferate in culture in response to the cytokine Interleukin-2 (IL-2). This proliferative response is dependent on the activation of JAK1 and JAK3 tyrosine kinases, which phosphorylate and activate the transcription factor Stat-5. The primary human T-cells are incubated with compound I in the presence of IL-2 for 72 hours and at the assay endpoint intracellular ATP concentrations are measured to assess cell viability. A reduction in cell proliferation compared to control conditions is indicative of inhibition of the JAK kinase pathway. An exemplary assay of this type is described in greater detail below.
Primary human T-cells derived from peripheral blood and pre-activated through stimulation of the T-cell receptor and CD28, proliferate in vitro in response to the cytokine Interleukin-2 (IL-2). […]
Proliferation was measured using CellTiter-Glo® Luminescent Cell Viability Assay (Promega), which determines the number of viable cells in culture based on quantitation of the ATP present, as an indicator of metabolically active cells. […]

The test system of series [5] is cell proliferation. The series can be described thus: Cell proliferation. Format: cell-based.
The test system of series [6] is human Ramos B cells stimulated with human IL-4 (JAK1 and JAK3, CD23 upregulation). The experiment in a line: Ramos B-cell line stimulated with IL-4, CD23 upregulation (FACS). Format: cell-based. The conditions noted are these: IL-4 50 units/mL for 20-24 hours, anti-CD23-PE FACS. From the text: One means of assaying for JAK inhibition is detection of the effect of compound I on the upregulation of downstream gene products. In the Ramos/IL4 assay, B-cells are stimulated with the cytokine Interleukin-4 (IL-4) leading to the activation of the JAK/Stat pathway through phosphorylation of the JAK family kinases, JAK1 and JAK3, which in turn phosphorylate and activate the transcription factor Stat-6. […] To study the effect of inhibitors (for example, the 2,4-substituted pyrimidinediamine compounds described herein) on the JAK1 and JAK3 kinases, human Ramos B cells are stimulated with human IL-4. Twenty to 24 hours post stimulation, cells are stained for upregulation of CD23 and analyzed using flow cytometry (FACS). […] An exemplary assay of this type is described in greater detail below.
B-cells stimulated with cytokine Interleukin-4 (IL-4) activate the JAK/Stat pathway through phosphorylation of the JAK family kinases, JAK-1 and JAK-3, which in turn phosphorylate and activate the transcription factor Stat-6. […] To study the effect of inhibitors on the JAK family kinases, human Ramos B cells are stimulated with human IL-4.
The Ramos B-cell line was acquired from ATCC (ATCC Catalog No. CRL-1596). […]
Cells were spun down and suspended in RPMI with 5% serum. […] Cells were then spun down and stained with anti-CD23-PE (BD Pharmingen, San Diego, Calif., Cat No. 555711) and analyzed by FACS. […]

In series [7] the target is T1, Syk (Homo sapiens, UniProt P43405).
T1 construct: endogenous in cells
The series can be described thus: Human cell based assay against Syk. The settings on record: human cell based assays, read-out: half maximal effective concentration (EC50).

Series [8] deals with receptor tyrosine kinase (RTK) signaling. The series can be described thus: Receptor tyrosine kinase signaling. Format: cell-based.

In the case of `C#CCOc1ccc(Nc2nc(Nc3ccc(C)c(S(N)(=O)=O)c3)ncc2F)cc1` [Compound I HCl, N2-(3-aminosulfonyl-4-methylphenyl)-5-fluoro-N4-[4-(prop-2-ynyloxy)phenyl]-2,4-pyrimidinediamine], the solubility in series [1] (40% TPGS/60% PEG400, organic solvent or mixture, 40% TPGS/60% PEG400, read-out: Solubility) is 1700 µg/mL; in series [1] (IPA, organic solvent or mixture, IPA, read-out: Solubility) it was 37 µg/mL; in series [1] (oleyl alcohol, oil or lipid, Oleyl alcohol, read-out: Solubility), 200 µg/mL; in series [1] (polyoxyglyceride (Labrafil M1944 CS), oil or lipid, Polyoxyglyceride (Labrafil M1944 CS), read-out: Solubility) it was 70 µg/mL; in series [1] (polyoxyglyceride (Labrasol), oil or lipid, Polyoxyglyceride (Labrasol), read-out: Solubility) it was 1800 µg/mL; in series [1] (triglyceride, oil or lipid, Triglyceride, read-out: Solubility) it was 20 µg/mL. Moreover, the solubility in series [2] (DMI, organic solvent or mixture, DMI (temperature not given), read-out: Solubility) is 400 µg/mL; in series [2] (EtOH, organic solvent or mixture, EtOH (temperature not given), read-out: Solubility), 300 µg/mL; in series [2] (PEG400 (temperature not given)), 2.6 ^e mg/mL; in series [2] (PG), 5.2 ^e mg/mL; in series [2] (diethylene glycol monoethyl ether (Transcutol P), organic solvent or mixture, Diethylene glycol monoethyl ether (transcutol P), read-out: Solubility), 900 µg/mL; in series [2] (isopropyl myristate, oil or lipid, Isopropyl Myristate, read-out: Solubility), 5 µg/mL. Further, the solubility in series [2] (propylene glycol laurate (Lauroglycol FCC), oil or lipid, Propylene Glycol Laurate (Lauroglycol FCC), read-out: Solubility) came out at 20 µg/mL; in series [2] (propylene glycol monocaprylate (Capryol 90), oil or lipid, Propylene Glycol Monocaprylate (Capryol 90), read-out: Solubility) it was 70 µg/mL.
On to `C#CCOc1ccc(Nc2nc(Nc3ccc(C)c(S(N)(=O)=O)c3)ncc2F)cc1` [Compound I besylate salt, N2-(3-aminosulfonyl-4-methylphenyl)-5-fluoro-N4-[4-(prop-2-ynyloxy)phenyl]-2,4-pyrimidinediamine], for which the solubility is 48000 µg/mL in series [2] (PEG400 (temperature not given)) and 15 ^d mg/mL in series [2] (PG).
As to `C#CCOc1ccc(Nc2nc(Nc3ccc(C)c(S(N)(=O)=O)c3)ncc2F)cc1` [Compound I, N2-(3-aminosulfonyl-4-methylphenyl)-5-fluoro-N4-[4-(prop-2-ynyloxy)phenyl]-2,4-pyrimidinediamine], in series [3], the “activity on other cytokine (IL-1β and TNFα) signaling” value is given as “little or no activity”. The solubility in series [1] (4% H2O-96% THF, organic solvent or mixture, 4% H2O-96% THF, read-out: Solubility) stood at 77000 µg/mL (≈ 180 mM); in series [1] (12% H2O-88% THF, organic solvent or mixture, 12% H2O-88% THF, read-out: Solubility) it was 202000 µg/mL (≈ 473 mM); in series [1] (16% H2O-84% THF, organic solvent or mixture, 16% H2O-84% THF, read-out: Solubility), 163000 µg/mL (≈ 381 mM); in series [1] (95% THF-5% PEG400, organic solvent or mixture, 95% THF-5% PEG400, read-out: Solubility), 70000 µg/mL (≈ 164 mM); in series [1] (DMI, 25 °C, organic solvent or mixture, DMI, determined at 25° C., read-out: Solubility), 124000 µg/mL (≈ 290 mM); in series [1] (Miglyol 812N, oil or lipid, Miglyol 812N, read-out: Solubility), 2300 µg/mL (≈ 5.38 mM). Besides, the solubility is 7400 µg/mL (≈ 17.3 mM) in series [1] (castor oil, oil or lipid, Castor Oil, read-out: Solubility); 2 µg/mL (≈ 0.00468 mM) in series [1] (water, 25 °C, water, 25° C., read-out: water solubility); 117000 µg/mL (≈ 274 mM) in series [2] (5% THF-95% PEG400, organic solvent or mixture, 5% THF-95% PEG400, read-out: Solubility); 129000 µg/mL (≈ 302 mM) in series [2] (10% THF-90% PEG400, organic solvent or mixture, 10% THF-90% PEG400, read-out: Solubility); 126000 µg/mL (≈ 295 mM) in series [2] (20% EtOH-80% PEG400, organic solvent or mixture, 20% EtOH-80% PEG400, read-out: Solubility); 133000 µg/mL (≈ 311 mM) in series [2] (20% H2O-80% THF, organic solvent or mixture, 20% H2O-80% THF, read-out: Solubility). In addition, the solubility in series [2] (50% EtOH-50% PEG400, organic solvent or mixture, 50% EtOH-50% PEG400, read-out: Solubility) is 136000 µg/mL (≈ 318 mM); in series [2] (90% THF-10% PEG400, organic solvent or mixture, 90% THF-10% PEG400, read-out: Solubility), 75000 µg/mL (≈ 175 mM); in series [2] (EtOH, 25 °C, organic solvent or mixture, EtOH, determined at 25° C., read-out: Solubility) it was 3200 µg/mL (≈ 7.49 mM); in series [2] (Glycofurol, listed as Compound I free base), >205 ^b mg/mL; in series [2] (PEG400 (temperature not given), listed as Compound I free base) it was 129 ^c mg/mL; in series [2] (PEG400, 25 °C, organic solvent or mixture, PEG400, determined at 25° C., read-out: Solubility), over 200000 µg/mL. In addition, the solubility in series [2] (PEG400, determined at 25° C.) is 292000 µg/mL (≈ 683 mM); in series [2] (PG, listed as Compound I free base), 27 ^c mg/mL; in series [2] (glycofurol, organic solvent or mixture, Glycofurol, read-out: Solubility), over 200000 µg/mL; in series [2] (glycofurol/water 8/2, organic solvent or mixture, Glycofurol/water 8/2, read-out: Solubility), under 205000 µg/mL; in series [2] (glycofurol/water 9/1 w/w, organic solvent or mixture, Glycofurol/water 9/1 w/w, read-out: Solubility), over 202000 µg/mL; in series [2] (water, 25 °C, water, determined at 25° C., read-out: Solubility), 2 µg/mL (≈ 0.00468 mM). For the same compound, in series [1] (at 45° C. in a formulation containing 14% water, 45% PEG400, and 20% PEG4500), the “compound I concentration that can be obtained (solubility study)” value is on record as 120 mg/g. Also, the IC50 in series [4] came out at 0.181 nM; in series [6] it was 0.056 nM. In addition, the “inhibition of cell proliferation” value in series [5] is reported as “not a broad inhibitor of cell proliferation”. Also, the EC50 in series [7] is about 140 nM. Moreover, the “activity on receptor tyrosine kinase (RTK) signaling” value in series [8] was “little or no activity”.
